In the NIST ThermoML archive (doi:10.1016/j.jct.2015.03.004):

Assays:
[1] = refractive index (Na D-line) (dimensionless); mn = molality of the nth substance listed, in mol/kg; conditions: 298.15 K, 101.33 kPa, Liquid, Standard Abbe refractometry
[2] = mn = molality of the nth substance listed, in mol/kg; conditions: 298.15 K, 101.33 kPa, Liquid; for speed of sound: Sing-around technique in a fixed-path interferometer; for mass density: Vibrating tube method
[3] = refractive index (Na D-line) (dimensionless); conditions: 298.15 K; 101.33 kPa; Liquid; Standard Abbe refractometry
[4] = 101.33 kPa, Liquid; for speed of sound: Sing-around technique in a fixed-path interferometer; for mass density: Vibrating tube method

c1ccsc1 [thiophene] + CCCCCC
Conditions	mass density, [2] [kg/m3]	refractive index, [1]	speed of sound, [2] [m/s]
m1 = 0.0303	655.82	1.3725	1077.3
m1 = 0.0354	655.927	1.3726	1077.3
m1 = 0.0403	656.03	1.3727	1077.3
m1 = 0.0453	656.133	1.3728	1077.3
m1 = 0.0504	656.239	1.3729	1077.4
m1 = 0.0554	656.34	1.373	1077.4
m1 = 0.0603	656.441	1.3731	1077.4
m1 = 0.0654	656.545	1.3732	1077.4
m1 = 0.0704	656.646	1.3733	1077.5
m1 = 0.0753	656.745	1.3734	1077.5
m1 = 0.0804	656.847	1.3735	1077.5
m1 = 0.0852	656.945	1.3736	1077.6
m1 = 0.0903	657.046	1.3737	1077.6
m1 = 0.0954	657.146	1.3738	1077.6
m1 = 0.1004	657.243	1.3739	1077.7
m1 = 0.1053	657.342	1.374	1077.7
m1 = 0.1104	657.441	1.3741	1077.8

c1ccsc1 [thiophene]
Conditions	refractive index
[3]	1.5252

[4]
Conditions	mass density [kg/m3]	speed of sound [m/s]
298.15 K	1058.56	1259
303.15 K	–	1258.7

C1CCCCC1 [cyclohexane]
Conditions	refractive index
[3]	1.4235

[4], 298.15 K
Conditions	mass density [kg/m3]	speed of sound [m/s]
–	773.87	1253.7

CCCCCC [hexane] + c1ccsc1
m2 = 0
Conditions	mass density [kg/m3]	refractive index	speed of sound [m/s]
[1]	–	1.3722	–
[2]	655.175	–	1077.2

CCCCCCn1cc[n+](C)c1.[Br-] [3-hexyl-1-methyl-1H-imidazolium bromide]
Conditions	refractive index
[3]	1.5308

[4], 298.15 K
Conditions	mass density [kg/m3]	speed of sound [m/s]
–	1223.81	1587.5

CCCCCCn1cc[n+](C)c1.[Br-] [3-hexyl-1-methyl-1H-imidazolium bromide] + C1CCCCC1
m1 = 0.0999
Conditions	mass density [kg/m3]	refractive index	speed of sound [m/s]
[1]	–	1.4236	–
[2]	773.932	–	1254.3

CCOS(=O)(=O)[O-].CCn1cc[n+](C)c1 [1-ethyl-3-methylimidazolium ethyl sulfate] + C1CCCCC1
m1 = 0.0999
Conditions	mass density [kg/m3]	refractive index	speed of sound [m/s]
[1]	–	1.4237	–
[2]	773.884	–	1254.3

CCCCCC [hexane]
Conditions	refractive index
[3]	1.3722

[4], 298.15 K
Conditions	mass density [kg/m3]	speed of sound [m/s]
–	655.175	1077.2

CCOS(=O)(=O)[O-].CCn1cc[n+](C)c1 [1-ethyl-3-methylimidazolium ethyl sulfate]
Conditions	refractive index
[3]	1.4784

[4], 298.15 K
Conditions	mass density [kg/m3]	speed of sound [m/s]
–	1237.72	1680.2

CCCCCCn1cc[n+](C)c1.[Br-] [3-hexyl-1-methyl-1H-imidazolium bromide] + CCCCCC
m1 = 0.1
Conditions	mass density [kg/m3]	refractive index	speed of sound [m/s]
[1]	–	1.3737	–
[2]	655.221	–	1077.4

C1CCCCC1 [cyclohexane] + c1ccsc1
m2 = 0
Conditions	mass density [kg/m3]	refractive index	speed of sound [m/s]
[1]	–	1.4235	–
[2]	773.87	–	1253.7

c1ccsc1 [thiophene] + C1CCCCC1
Conditions	mass density, [2] [kg/m3]	refractive index, [1]	speed of sound, [2] [m/s]
m1 = 0.0404	774.512	1.424	1253.4
m1 = 0.0503	774.668	1.4241	1253.4
m1 = 0.0602	774.824	1.4242	1253.3
m1 = 0.0703	774.983	1.4243	1253.2
m1 = 0.0803	775.14	1.4244	1253.2
m1 = 0.0902	775.295	1.4245	1253.1
m1 = 0.1003	775.452	1.4246	1253
m1 = 0.1103	775.608	1.4247	1252.9
m1 = 0.1203	775.764	1.4248	1252.9
m1 = 0.1303	775.917	1.4249	1252.8
m1 = 0.1402	776.075	1.425	1252.7
m1 = 0.1503	776.227	1.4251	1252.6
m1 = 0.1603	776.38	1.4252	1252.6
m1 = 0.1702	776.53	1.4253	1252.5
m1 = 0.1802	776.684	1.4254	1252.4
